Molecular target: T1, 11β-HSD1 (Homo sapiens, UniProt P28845)
T1 construct: detecting cortisol generated from cortisterone by human liver microsomes; from tissue; host or cells: human liver microsomes
Experiment: In vitro inhibition of 11β-HSD1, HTRF detection of cortisol generated from cortisone by human liver microsomes
Assay type: biochemical
Conditions: 11β-HSD IC50 (nM), 1 hour at 37° C., pH 6.0, NADPH 200 μM, cortisone 80 nM, inhibition relative to carbenoxolone signal
Method in brief: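 Inhibition expressed against the carbenoxolone signal and fitted to IC50 curves. Readout: HTRF competition between microsomal cortisol and XL665-labelled cortisol for Eu-cryptate anti-cortisol antibody (typically 2 h), with emission ratio 665/615 calibrated to cortisol concentration.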

T1 sequence (P28845 whole entry): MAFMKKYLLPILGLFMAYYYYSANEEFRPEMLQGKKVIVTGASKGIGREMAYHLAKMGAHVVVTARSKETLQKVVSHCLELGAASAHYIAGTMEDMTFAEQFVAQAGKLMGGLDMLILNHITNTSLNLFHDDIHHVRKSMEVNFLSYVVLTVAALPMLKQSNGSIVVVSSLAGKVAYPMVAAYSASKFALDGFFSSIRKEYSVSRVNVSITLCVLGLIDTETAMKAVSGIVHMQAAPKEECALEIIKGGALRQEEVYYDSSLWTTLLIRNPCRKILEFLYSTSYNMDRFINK

SMILES	IC50 [nM]
CC1(C)[C@H]2Cc3c(C(N)=O)cccc3[C@]1(C)CCN2C(=O)c1ccc2nc[nH]c2c1 [Example 160, (2R,6S)-3-(3H-Benzoimidazole-5-carbonyl)-6,11,11-trimethyl-1,2,3,4,5,6-hexahydro-2,6-methano-benzo[d]azocine-10-carboxylic acid amide]	2180
CC1(C)[C@H]2Cc3cc(-c4ccccc4)ccc3[C@]1(C)CCN2C(=O)c1ccc2nc[nH]c2c1 [Example 102, (3H-Benzoimidazol-5-yl)-[(2R,6S)-6,11,11-trimethyl-9-phenyl-1,2,5,6-tetrahydro-4H-2,6-methano-benzo[d]azocin-3-yl]-methanone]	1460
CC1(C)[C@H]2Cc3ccccc3[C@]1(C)CCN2C(=O)c1ccc2c(c1)C(=O)CC2 [Example 288, 6-[(2R,6S)-6,11,11-Trimethyl-1,2,5,6-tetrahydro-4H-2,6-methano-benzo[d]azocine-3-carbonyl)-indan-1-one]	901
CC1(C)[C@H]2Cc3cc4nc(-c5cnccn5)[nH]c4cc3[C@]1(C)CCN2C(=O)c1ccc2nc[nH]c2c1 [Example 266, (3H-Benzoimidazol-5-yl)-[(6R,10S)-5,6,7,8,9,10-hexahydro-10,12,12-trimethyl-2-pyrazin-2-yl-6,10-methano-imidazo[5,4-i][3]benzazocin-7-yl]-methanone]	42
COC(=O)C12CCN(C(=O)c3ccc4nc[nH]c4c3)C(Cc3ccc(O)cc31)C2 (stereo not drawn) [Example 212, 3-(3H-Benzoimidazole-5-carbonyl)-8-hydroxy-2,3,4,5-tetrahydro-1H-2,6-methano-benzo[d]azocine-6-carboxylic acid methyl ester]	1940
COc1ccc(C(=O)N2CC[C@@]3(C)c4cccc(O)c4C[C@@H]2C3(C)C)cc1 [Example 14, [(2R,6S)-10-Hydroxy-6,11,11-trimethyl-1,2,5,6-tetrahydro-4H-2,6-methano-benzo[d]azocin-3-yl]-(4-methoxy-phenyl)-methanone]	734
CC1(C)[C@H]2Cc3c(O)cccc3[C@]1(C)CCN2C(=O)c1ccc2ncsc2c1 [Example 46, Benzothiazol-6-yl-[(2R,6S)-10-hydroxy-6,11,11-trimethyl-1,2,5,6-tetrahydro-4H-2,6-methano-benzo[d]azocin-3-yl]-methanone]	97
Cc1ccc(C(=O)N2CC[C@@]3(C)c4cccc(O)c4C[C@@H]2C3(C)C)cc1 [Example 12, [(2R,6S)-10-Hydroxy-6,11,11-trimethyl-1,2,5,6-tetrahydro-4H-2,6-methano-benzo[d]azocin-3-yl]-p-tolyl-methanone]	792
Cn1cnc2cc3c(cc21)[C@]1(C)CCN(C(=O)c2ccc4nc[nH]c4c2)[C@H](C3)C1(C)C [Example 241, (3H-Benzoimidazol-5-yl)-[(6R,10S)-5,6,7,8,9,10-hexahydro-1,10,12,12-tetramethyl-6,10-methano-imidazo[5,4-i][3]benzazocin-7-yl]-methanone]	204
C[C@@H]1[C@H]2Cc3ccc(-c4cccnc4)cc3[C@]1(C)CCN2C(=O)c1ccc2nc[nH]c2c1 [Example 250, (3H-Benzoimidazol-5-yl)-[(2R,6R,11S)-6,11-dimethyl-8-pyridin-3-yl-1,2,5,6-tetrahydro-4H-2,6-methano-benzo[d]azocin-3-yl]-methanone]	53
CC1(C)[C@H]2Cc3cc4oc([C@@H]5CCCO5)nc4cc3[C@]1(C)CCN2C(=O)c1ccc2nc[nH]c2c1 [Example 338, (3H-Benzoimidazol-5-yl)-[(6R,10S)-5,6,7,8,9,10-hexahydro-10,12,12-trimethyl-2-[(S)-tetrahydrofuran-2-yl]-6,10-methano-oxazolo[4,5-i][3]benzazocin-7-yl]-methanone]	63
Cn1c(=O)[nH]c2cc(C(=O)N3CC[C@@]4(C)c5cccc(O)c5C[C@@H]3C4(C)C)ccc21 [Example 29, 5-[(2R,6S)-10-Hydroxy-6,11,11-trimethyl-1,2,5,6-tetrahydro-4H-2,6-methano-benzo[d]azocine-3-carbonyl]-1-methyl-1,3-dihydro-benzoimidazol-2-one]	1730
